# Test results from paper PMC5505983, “Naringenin Impairs Two-Pore Channel 2 Activity And Inhibits VEGF-Induced Angiogenesis” (Scientific Reports, 2017).
# Key:
# hTPC2 = target: T1, hTPC2 (Homo sapiens, UniProt Q8NHX9); experiment: whole-vacuole patch clamp, dose-response of current inhibition; assay type: cell-based; settings: read-out: apparent affinity constant
# T1 construct: gene TPCN2; full-length with C-terminal EGFP, plasmid pSAT-hTPC2-EGFP; transiently expressed in vacuoles of Arabidopsis thaliana tpc1-2 mutant mesophyll protoplasts; dimer
# T1 sequence (Q8NHX9 whole entry): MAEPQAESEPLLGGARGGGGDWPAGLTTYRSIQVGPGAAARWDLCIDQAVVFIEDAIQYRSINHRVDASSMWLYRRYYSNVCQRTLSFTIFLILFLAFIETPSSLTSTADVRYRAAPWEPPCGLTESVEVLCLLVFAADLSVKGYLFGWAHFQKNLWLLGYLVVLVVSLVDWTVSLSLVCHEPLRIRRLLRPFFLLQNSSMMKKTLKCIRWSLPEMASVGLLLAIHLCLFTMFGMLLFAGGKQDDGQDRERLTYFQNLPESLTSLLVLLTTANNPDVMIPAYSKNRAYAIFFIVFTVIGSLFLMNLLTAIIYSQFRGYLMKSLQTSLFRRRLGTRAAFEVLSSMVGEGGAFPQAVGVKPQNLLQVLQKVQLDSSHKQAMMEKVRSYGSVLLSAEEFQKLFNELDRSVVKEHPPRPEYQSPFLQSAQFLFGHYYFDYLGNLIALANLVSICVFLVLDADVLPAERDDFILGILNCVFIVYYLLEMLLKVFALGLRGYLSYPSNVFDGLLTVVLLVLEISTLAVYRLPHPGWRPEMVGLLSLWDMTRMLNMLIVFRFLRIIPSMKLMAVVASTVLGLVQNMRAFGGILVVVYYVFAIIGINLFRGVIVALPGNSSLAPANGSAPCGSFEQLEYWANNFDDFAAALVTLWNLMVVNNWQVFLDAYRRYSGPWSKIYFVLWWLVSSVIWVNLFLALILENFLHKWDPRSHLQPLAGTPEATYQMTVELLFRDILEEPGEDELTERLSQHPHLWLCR
# hTPC1 = target: T2, hTPC1 (Homo sapiens, UniProt Q9ULQ1); experiment: whole-vacuole patch clamp, current activation; assay type: biochemical; settings: activator; 90 nM cytosolic side; diC8 form; pH 7.5 cytosolic, pH 5.5 vacuolar
# T2 construct: gene TPCN1; full-length with C-terminal EGFP, plasmid pSAT-hTPC1-EGFP; transiently expressed in vacuoles of Arabidopsis thaliana tpc1-2 mutant mesophyll protoplasts; dimer
SMILES,IC50 (hTPC2),"whole-vacuole patch clamp, current activation (hTPC1)"
"O=C1C[C@@H](c2ccc(O)cc2)Oc2cc(O)cc(O)c21 [Nar, 5,7-dihydroxy-2-(4-hydroxyphenyl)chroman-4-one]",180 ± 20 µM,
"CCCCCCCC(=O)OC[C@H](COP(=O)(O)O[C@@H]1[C@H](O)[C@H](OP(=O)(O)O)[C@@H](O)[C@H](OP(=O)(O)O)[C@H]1O)OC(=O)CCCCCCC [PI(3,5)P2]",,very small in comparison to those elicited by the addition of the phosphoinositide
